What all share (type): ADME, organism-based
Holding throughout (design): dose 30 mg/kg, route oral

Series [1] is described as follows: Cmax in mouse at 30 mg/kg, po. The following applies: in vivo.
The nature of series [2]: AUC (0 to time) in mouse at 30 mg/kg, po. To be noted: plasma.
A short description of series [3]: Half life in mouse at 30 mg/kg, po. The following applies: in vivo.

Experimental findings from ChEMBL document CHEMBL3393059, “Optimisation of in silico derived 2-aminobenzimidazole hits as unprecedented selective kappa opioid receptor agonists” (Bioorg Med Chem Lett, 2015) are described below.

Each structure is given as a SMILES string.

As a reminder, the Cmax is the peak of the concentration-time curve. In general, AUC refers to concentration integrated over time. Low readings indicate less exposure, high ones more exposure. The term half-life denotes the time in which the quantity being followed falls by half. Read a low half-life as rapid decline. `CN(C(=O)C(c1ccccc1)c1ccccc1)[C@H](CN1CC[C@H](O)C1)c1ccccc1` [ASIMADOLINE] came in with a Cmax in series [1] of 507 ng/mL. For the same compound, the AUC in series [2] worked out at 493 ng·h/mL. Besides, the half-life in series [3] was 30 min.
